Measured values as given in ChEMBL document CHEMBL1201862, “PubChem BioAssay data set” (2004).
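The compound was tested at five concentrations on cells cultured in 96-well plates, with a 48-hour exposure period. GI50: concentration for 50% inhibition of growth.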 Activity calls are given as the source filed them. No stated cut-off is given here; in the data, active = GI50 up to about 1.1 µM and inactive = higher.

How the values were obtained:
Experiment in all cases: inhibition of tumour cell growth, NCI panel, 48 h
HOP-92 = system: HOP-92
LOX IMVI = system: LOX IMVI
HOP-62 = system: HOP-62
NCI-H522 = system: NCI-H522
IGROV-1 = system: IGROV-1
DLD-1 = system: DLD-1
ACHN = system: ACHN
NCI-H460 = system: NCI-H460
OVCAR-8 = system: OVCAR-8
RPMI-8226 = system: RPMI-8226
A498 = system: A498
OVCAR-3 = system: OVCAR-3
SR = system: SR
A549 = system: A549
SW-620 = system: SW-620
SNB-19 = system: SNB-19
OVCAR-5 = system: OVCAR-5
HT-29 = system: HT-29
LXFL 529 = system: LXFL 529
SF-295 = system: SF-295
RXF 631 = system: RXF 631
HCC 2998 = system: HCC 2998
SNB-78 = system: SNB-78
DMS-273 = system: DMS-273
HCT-15 = system: HCT-15
UACC-62 = system: UACC-62
KM12 = system: KM12
OVCAR-4 = system: OVCAR-4
SF-539 = system: SF-539
HL-60 = system: HL-60
UACC-257 = system: UACC-257
SK-MEL-28 = system: SK-MEL-28
M14 = system: M14
RXF 393 = system: RXF 393
SN12C = system: SN12C
SNB-75 = system: SNB-75
SK-MEL-5 = system: SK-MEL-5
SK-OV-3 = system: SK-OV-3
U-251 = system: U-251
DMS-114 = system: DMS-114
TK-10 = system: TK-10
CCRF-CEM = system: CCRF-CEM
SF-268 = system: SF-268
MOLT-4 = system: MOLT-4
HCT-116 = system: HCT-116
COLO 205 = system: COLO 205
NCI-H226 = system: NCI-H226
HOP-18 = system: HOP-18
786-0 = system: 786-0
KM-20L2 = system: KM-20L2
Malme-3M = system: Malme-3M
EKVX = system: EKVX
M19-MEL = system: M19-MEL
UO-31 = system: UO-31
CAKI-1 = system: CAKI-1
K562 = system: K562
MDA-N = system: MDA-N
SK-MEL-2 = system: SK-MEL-2
BT-549 = system: BT-549
T47D = system: T47D
PC-3 = system: PC-3
DU-145 = system: DU-145
NCI-H23 = system: NCI-H23
MDA-MB-231 = system: MDA-MB-231
MDA-MB-435 = system: MDA-MB-435
NCI/ADR-RES = system: NCI/ADR-RES
MCF7 = system: MCF7
Hs-578T = system: Hs-578T

Question: Which results are given for `CC1=C2C3OC(=O)C(C)C3C(O)C[C@@]2(C)C(=O)CC1` (some centres not stated)?
Answer: GI50 (HOP-92): > 100 µM (inactive); GI50 (LOX IMVI): > 100 µM (inactive); GI50 (HOP-62): > 100 µM (inactive); GI50 (NCI-H522): > 100 µM (inactive); GI50 (IGROV-1): > 100 µM (inactive); GI50 (DLD-1): > 100 µM (inactive); GI50 (ACHN): > 100 µM (inactive); GI50 (NCI-H460): > 100 µM (inactive); GI50 (OVCAR-8): > 100 µM (inactive); GI50 (RPMI-8226): > 100 µM (inactive); GI50 (A498): > 100 µM (inactive); GI50 (OVCAR-3): > 100 µM (inactive); GI50 (SR): > 100 µM (inactive); GI50 (A549): > 100 µM (inactive); GI50 (SW-620): > 100 µM (inactive); GI50 (SNB-19): > 100 µM (inactive); GI50 (OVCAR-5): > 100 µM (inactive); GI50 (HT-29): > 100 µM (inactive); GI50 (LXFL 529): > 100 µM (inactive); GI50 (SF-295): > 100 µM (inactive); GI50 (RXF 631): > 100 µM (inactive); GI50 (HCC 2998): > 100 µM (inactive); GI50 (SNB-78): > 100 µM (inactive); GI50 (DMS-273): > 100 µM (inactive); GI50 (HCT-15): > 100 µM; GI50 (UACC-62): > 100 µM (inactive); GI50 (KM12): > 100 µM (inactive); GI50 (OVCAR-4): > 100 µM (inactive); GI50 (SF-539): > 100 µM (inactive); GI50 (HL-60): > 100 µM (inactive); GI50 (UACC-257): > 100 µM (inactive); GI50 (SK-MEL-28): > 100 µM (inactive); GI50 (M14): > 100 µM (inactive); GI50 (RXF 393): > 100 µM (inactive); GI50 (SN12C): > 100 µM (inactive); GI50 (SNB-75): > 100 µM (inactive); GI50 (SK-MEL-5): > 100 µM (inactive); GI50 (SK-OV-3): > 100 µM (inactive); GI50 (U-251): > 100 µM (inactive); GI50 (DMS-114): > 100 µM (inactive); GI50 (TK-10): > 100 µM (inactive); GI50 (CCRF-CEM): > 100 µM (inactive); GI50 (SF-268): > 100 µM (inactive); GI50 (MOLT-4): > 100 µM (inactive); GI50 (HCT-116): > 100 µM (inactive); GI50 (COLO 205): > 100 µM (inactive); GI50 (NCI-H226): > 100 µM (inactive); GI50 (HOP-18): > 100 µM (inactive); GI50 (786-0): > 100 µM (inactive); GI50 (KM-20L2): > 100 µM (inactive); GI50 (Malme-3M): > 100 µM (inactive); GI50 (EKVX): > 100 µM (inactive); GI50 (M19-MEL): > 100 µM (inactive); GI50 (UO-31): > 100 µM (inactive); GI50 (CAKI-1): > 100 µM (inactive)

Question: For `O=C1/C(=C/c2ccccc2)CCC/C1=C\c1ccccc1` [2,6-DIBENZYLIDENECYCLOHEXANONE], which GI50 (HOP-92) is on record?
Answer: 17.5 µM (inactive)

Question: And the GI50 (LOX IMVI)?
Answer: 2.21 µM (inactive)

Question: What about the GI50 (HOP-62) of the same compound?
Answer: 21.7 µM (inactive)

Question: What about the GI50 (K562) of the same compound?
Answer: 3.58 µM (inactive)

Question: What about the GI50 (MDA-N) of the same compound?
Answer: 2.79 µM (inactive)

Question: What about the GI50 (SK-MEL-2) of the same compound?
Answer: 16.7 µM (inactive)

Question: And the GI50 (IGROV-1)?
Answer: 13 µM (inactive)

Question: And the GI50 (DLD-1)?
Answer: 3.04 µM (inactive)

Question: What about the GI50 (ACHN) of the same compound?
Answer: 15.7 µM (inactive)

Question: What about the GI50 (BT-549) of the same compound?
Answer: 5.81 µM (inactive)

Question: What about the GI50 (T47D) of the same compound?
Answer: 6.4 µM (inactive)

Question: And the GI50 (NCI-H460)?
Answer: 14.9 µM (inactive)

Question: And the GI50 (OVCAR-8)?
Answer: 8.26 µM (inactive)

Question: What about the GI50 (RPMI-8226) of the same compound?
Answer: 1.6 µM (inactive)

Question: What about the GI50 (PC-3) of the same compound?
Answer: 5.89 µM (inactive)

Question: And the GI50 (DU-145)?
Answer: 6.97 µM (inactive)

Question: And the GI50 (A498)?
Answer: 16.1 µM (inactive)

Question: And the GI50 (OVCAR-3)?
Answer: 10.4 µM (inactive)

Question: What about the GI50 (SR) of the same compound?
Answer: 9.71 µM (inactive)

Question: What about the GI50 (A549) of the same compound?
Answer: 19.6 µM (inactive)

Question: What about the GI50 (SW-620) of the same compound?
Answer: 2.6 µM (inactive)

Question: And the GI50 (SNB-19)?
Answer: 14.6 µM (inactive)

Question: What about the GI50 (NCI-H23) of the same compound?
Answer: 12.8 µM (inactive)

Question: What about the GI50 (OVCAR-5) of the same compound?
Answer: 17.3 µM (inactive)

Question: What about the GI50 (HT-29) of the same compound?
Answer: 5.87 µM (inactive)

Question: And the GI50 (LXFL 529)?
Answer: 4.5 µM (inactive)

Question: What about the GI50 (MDA-MB-231) of the same compound?
Answer: 6.07 µM (inactive)

Question: And the GI50 (SF-295)?
Answer: 10.4 µM (inactive)

Question: What about the GI50 (RXF 631) of the same compound?
Answer: 17.7 µM (inactive)

Question: And the GI50 (MDA-MB-435)?
Answer: 5.62 µM (inactive)

Question: And the GI50 (HCC 2998)?
Answer: 12.2 µM (inactive)

Question: And the GI50 (SNB-78)?
Answer: 17.5 µM (inactive)

Question: What about the GI50 (DMS-273) of the same compound?
Answer: 8.04 µM (inactive)

Question: And the GI50 (HCT-15)?
Answer: 8.07 µM

Question: What about the GI50 (UACC-62) of the same compound?
Answer: 13.2 µM (inactive)

Question: What about the GI50 (KM12) of the same compound?
Answer: 2.52 µM (inactive)

Question: What about the GI50 (OVCAR-4) of the same compound?
Answer: 14.9 µM (inactive)

Question: What about the GI50 (SF-539) of the same compound?
Answer: 16.6 µM (inactive)

Question: What about the GI50 (HL-60) of the same compound?
Answer: 2.8 µM (inactive)

Question: And the GI50 (UACC-257)?
Answer: 17 µM (inactive)

Question: And the GI50 (SK-MEL-28)?
Answer: 16.6 µM (inactive)

Question: What about the GI50 (M14) of the same compound?
Answer: 6.44 µM (inactive)

Question: What about the GI50 (RXF 393) of the same compound?
Answer: 17.8 µM (inactive)

Question: And the GI50 (SN12C)?
Answer: 16.1 µM (inactive)

Question: What about the GI50 (SNB-75) of the same compound?
Answer: 20.2 µM (inactive)

Question: And the GI50 (SK-MEL-5)?
Answer: 13.2 µM (inactive)

Question: And the GI50 (SK-OV-3)?
Answer: 21.4 µM (inactive)

Question: And the GI50 (U-251)?
Answer: 5.82 µM (inactive)

Question: And the GI50 (DMS-114)?
Answer: 9.68 µM (inactive)

Question: And the GI50 (TK-10)?
Answer: 17.8 µM (inactive)

Question: And the GI50 (CCRF-CEM)?
Answer: 4.12 µM (inactive)

Question: And the GI50 (SF-268)?
Answer: 11 µM (inactive)

Question: What about the GI50 (MOLT-4) of the same compound?
Answer: 3.95 µM (inactive)

Question: And the GI50 (NCI/ADR-RES)?
Answer: 8.77 µM (inactive)

Question: What about the GI50 (HCT-116) of the same compound?
Answer: 1.71 µM (inactive)

Question: And the GI50 (COLO 205)?
Answer: 17.9 µM (inactive)

Question: What about the GI50 (NCI-H226) of the same compound?
Answer: 18.7 µM (inactive)

Question: And the GI50 (HOP-18)?
Answer: 19.5 µM (inactive)

Question: What about the GI50 (786-0) of the same compound?
Answer: 12.8 µM (inactive)

Question: What about the GI50 (KM-20L2) of the same compound?
Answer: 8.79 µM (inactive)

Question: What about the GI50 (Malme-3M) of the same compound?
Answer: 16.5 µM (inactive)

Question: What about the GI50 (EKVX) of the same compound?
Answer: 18.3 µM (inactive)

Question: What about the GI50 (MCF7) of the same compound?
Answer: 1.74 µM (inactive)

Question: What about the GI50 (M19-MEL) of the same compound?
Answer: 1.97 µM (inactive)

Question: What about the GI50 (Hs-578T) of the same compound?
Answer: 8.2 µM (inactive)

Question: And the GI50 (UO-31)?
Answer: 18.2 µM (inactive)

Question: What about the GI50 (CAKI-1) of the same compound?
Answer: 23.4 µM (inactive)
